Six compounds from patent US20240251792A1, “WEED CONTROL METHOD” (SYNGENTA CROP PROTECTION AG, priority 2021, published 2024) can be followed below.

Common to all, as to type: in vivo
For one assay, the system named is weeds and/or crops. The assay can be described thus: Post-emergence biological efficacy (Table 4). To be noted: 312 h, 1000 g/ha, evaluated after 13 days. The method, then:
(§1) Seeds of weeds and/or crops were sown in standard soil in pots. After cultivation for 14 days under controlled conditions in a glasshouse (at 24/19° C., day/night; 16 hours light), the plants were sprayed with an aqueous spray solution derived from the formulation of the technical active ingredient in a small amount of acetone and a special solvent and emulsifier mixture referred to as F50 (11.12% Emulsogen EL360 TM+44.44% N-methylpyrrolidone+44.44% Dowanol DPM glycol ether), to create a 50 g/l solution which was then diluted using 0.2% Genapol X080 as diluent to give the desired final dose of test compound.
(§2) The test plants were then grown under controlled conditions in the glasshouse (at 24/18° C., day/night; 15 hours light; 50% humidity) and watered twice daily. After 13 days the test was evaluated (100=total damage to plant; 0=no damage to plant).

For the next assay, the system named is ABUTH. The assay is described as follows: Pre-emergence biological efficacy (Table 3). To be noted: Abutilon theophrasti, 312 h, after 13 days, read-out: evaluation (100=total damage to plant; 0=no damage to plant). Here is the method: as §1, with “one day” for “14 days”, “AMA” for “F50”
as §2

A further assay relates to AMARE. The assay can be described thus: Pre-emergence biological efficacy (Table 3). To be noted: Amaranthus retroflexus, 312 h, 1000 g/ha, after 13 days, read-out: evaluation (100=total damage to plant; 0=no damage to plant). The method, then: as §1, with “one day” for “14 days”, “AMA” for “F50”
as §2

A further assay relates to IPOHE. The assay is described as follows: Pre-emergence biological efficacy (Table 3). To be noted: Ipomoea hederacea, 312 h, 1000 g/ha, after 13 days, read-out: evaluation (100=total damage to plant; 0=no damage to plant). The method, then:
as §1, with “one day” for “14 days”, “AMA” for “F50”
as §2

A further assay concerns ECHCG. The assay can be described thus: Pre-emergence biological efficacy (Table 3). To be noted: Echinochloa crus-galli, 312 h, 1000 g/ha, after 13 days, read-out: evaluation (100=total damage to plant; 0=no damage to plant). The method, then:
as §1, with “one day” for “14 days”, “AMA” for “F50”
as §2

In a further assay the test system is ZEAMX. The assay is described as follows: Pre-emergence biological efficacy (Table 3). To be noted: 312 h, 1000 g/ha, after 13 days, read-out: evaluation (100=total damage to plant; 0=no damage to plant). The method, then: as §1, with “one day” for “14 days”, “AMA” for “F50”
as §2

Another assay has as its system STEME. The assay can be described thus: Pre-emergence biological efficacy (Table 3). To be noted: 312 h, after 13 days, read-out: evaluation (100=total damage to plant; 0=no damage to plant). Here is the method:
as §1, with “one day” for “14 days”, “AMA” for “F50”
as §2

The mark [1] stands for this setting: STEME, read-out: damage to plant STEME (100=total damage; 0=no damage).
Setting [2] is: ZEAMX, read-out: damage to plant ZEAMX (100=total damage; 0=no damage).
[3] abbreviates: Abutilon theophrasti, ABUTH, read-out: damage to plant ABUTH (100=total damage; 0=no damage).
[4] abbreviates: Amaranthus retroflexus, AMARE, read-out: damage to plant AMARE (100=total damage; 0=no damage).
[5] abbreviates: Ipomoea hederacea, IPOHE, read-out: damage to plant IPOHE (100=total damage; 0=no damage).

Where two headings read alike, the source gives them in different places.

Turning to `Nc1c(Cl)cc(Cl)cc1C(F)(F)C(=O)O` [Compound 7-253, Ammonium 2-(2-amino-3,5-dichloro-phenyl)-2,2-difluoro-acetate], the pest or weed control at 1000 g/ha with weeds and/or crops (setting [1]) came out at 60%; in the assay on weeds and/or crops (setting [2]) it was 10%; in the assay with weeds and/or crops (setting [3]), 40%; in the assay on weeds and/or crops (setting [4]), 60%; with weeds and/or crops (Echinochloa crus-galli, ECHCG, read-out: damage to plant ECHCG (100=total damage; 0=no damage)) it was 0%; in the assay on weeds and/or crops (setting [5]), 70%. For the same compound, the pest or weed control at 1000 g/ha in the assay with ABUTH, with AMARE, in the assay with IPOHE and with ECHCG was 0% each time.
On to `O=C(O)C(F)(F)c1cccc2cccnc12` [Compound 1-403, 2,2-Difluoro-2-(quinoline-8-yl)acetic acid], for which the pest or weed control at 1000 g/ha amounted to 80% in the assay with weeds and/or crops (setting [1]); 20% in the assay with weeds and/or crops (setting [2]); 80% in the assay on weeds and/or crops (setting [3]); 90% in the assay with weeds and/or crops (setting [4]); 70% in the assay on weeds and/or crops (setting [5]); 80% with ABUTH. Also, the pest or weed control at 1000 g/ha in the assay with AMARE was 80%; in the assay with STEME it was 70%; with IPOHE it was 90%. Also, the plant injury at 1000 g/ha in the assay with ZEAMX was determined as 30%.
Regarding `CCOC(=O)C(F)(F)c1c(F)ccc(F)c1O` [Compound 3-297, Ethyl 2-(3,6-difluoro-2-hydroxyphenyl)-2,2-difluoroacetate], the pest or weed control at 1000 g/ha in the assay on weeds and/or crops (setting [1]) was found to be 0%; in the assay with weeds and/or crops (setting [2]), 20%; with weeds and/or crops (setting [3]), 10%; in the assay on weeds and/or crops (setting [4]) it was 10%; with weeds and/or crops (setting [5]), 10%; in the assay with ABUTH, 0%. In addition, the pest or weed control at 1000 g/ha in the assay on AMARE, in the assay on STEME and in the assay on IPOHE was 0% in each case. For the same compound, in the assay with ZEAMX, the plant injury at 1000 g/ha amounted to 0%.
`O=C(O)C(F)(F)c1cc(-c2ccc(F)cc2)cc(Cl)c1Cl` [Compound 1-78, 2-(4,5-Dichloro-4′-fluoro-[1,1′-biphenyl]-3-yl)-2,2-difluoroacetic acid]: the pest or weed control at 1000 g/ha with weeds and/or crops (setting [1]) is 0%; with weeds and/or crops (setting [2]), 30%; in the assay on weeds and/or crops (setting [3]), 10%; in the assay with weeds and/or crops (setting [4]) it was 50%; in the assay with weeds and/or crops (setting [5]), 40%; in the assay with AMARE it was 0%. Besides, the pest or weed control at 1000 g/ha with STEME and with IPOHE was 0% throughout. The plant injury at 1000 g/ha with ZEAMX came to 0%.
Turning to `COc1c(Cl)cc(Cl)c(Cl)c1C(F)(F)C(=O)O` [Compound 1-82, 2,2-Difluoro-2-(2,3,5-trichloro-6-methoxy-phenyl)acetic acid], the pest or weed control at 1000 g/ha was 10% in the assay with weeds and/or crops (setting [1]); 20% with weeds and/or crops (setting [2]); 20% in the assay with weeds and/or crops (setting [3]); 60% with weeds and/or crops (setting [4]); 30% with weeds and/or crops (setting [5]); 60% in the assay on AMARE. For the same compound, the pest or weed control at 1000 g/ha in the assay on STEME is 30%; with IPOHE, 20%. Further, the plant injury at 1000 g/ha in the assay with ZEAMX stood at 0%.
On to `O=C(O)C(F)(F)c1cc(Cl)c(Cl)cc1O` [Compound 1-298, 2-(4,5-Dichloro-2-hydroxy-phenyl)-2,2-difluoro-acetic acid], for which the pest or weed control at 1000 g/ha is 0% in the assay with weeds and/or crops (setting [1]); 20% with weeds and/or crops (setting [2]); 10% in the assay with weeds and/or crops (setting [3]); 10% with weeds and/or crops (setting [4]); 10% with weeds and/or crops (setting [5]); 0% with ABUTH. Also, the pest or weed control at 1000 g/ha with AMARE, in the assay with STEME and in the assay on IPOHE was 0% throughout. Further, the plant injury at 1000 g/ha with ZEAMX was 0%.
